From patent US11471459B2, “Compounds with enhanced anti-tumor effects” (FONDAZIONE PER L'ISTITUTO ONCOLOGICO DI RICERCA (IOR), priority 2018, dated 2022)

Experiments:
[1] = test system: T cell lymphomas (CTCL, PTCL, ALCL) cell lines; test: Proliferation MTT assay, median per subtype; assay type: cell-based; conditions: 72 h
Protocol: (§1) Thirty-nine cell lines derived from activated B cell-like (ABC) (n=3) and germinal center B Cell (GCB) (n=12) diffuse large B cell lymphoma (DLBCL), mantle cell lymphoma (MCL) (n=9), chronic lymphocytic leukemia (CLL) (n=2), Hodgkin lymphoma (HL) (n=4), cutaneous T cell lymphoma (CTCL) (n=3), peripheral T cell lymphoma (PTCL) (n=1), anaplastic large T cell lymphoma (ALCL) (n=4), acute T cell leukemia (ATCL) (n=1) were cultured according to the recommended conditions. All media were supplemented with fetal bovine serum (10%), Penicillin-Streptomycin-Neomycin (˜5,000 units penicillin, 5 mg streptomycin and 10 mg neomycin/mL, Sigma) and L-glutamine (1%).
(§2) EG-011 was dissolved in dimethyl sulphoxide (DMSO) to obtain a stock concentration of 10 mM for in vitro experiments. EG-011 was dissolved in 25% hydroxypropyl beta cyclodextrin (HP-β-CD) in water and adjusted at pH 6.0 using NaOH (0.1 N) and HCl (0.1 N) for in vivo experiments. Application volume was 4.5 mL/kg (100 mg in 4.5 mL), and mice received 200 microliters (corresponding to 200 mg/kg) though intra peritoneal i.p. injection, once per day and five days per week.
(§3) Cells were seeded in 96-well plates (non-tissue culture treated) at a density of 10,000 cells for all cell lines. Each compound was dissolved in dimethyl sulphoxide (DMSO). For treatment of cells, compounds were serially diluted in the appropriate tissue culture medium, at a range of 20 mcM-78 nM following a 1:2 dilution factor and added to cells (in three replicates). Cells were incubated for 72 hours at 37° C., 5% CO2. DMSO alone was added to negative control (untreated) cells. Wells containing medium only were included on each plate and served as blanks for absorbance readings. MTT (Sigma-Aldrich Chemie GmbH, Buchs, Switzerland) was prepared as a 5 mg/ml stock in PBS and filter-sterilized. MTT solution (22 μL) was added to each well and tissue culture plates were incubated at 37° C. for 4 hours. Cells were then lysed with 25% SDS lysis buffer and absorbance was read at 570 nm using an AD340 plate reader (Beckman Coulter International SA, Switzerland). Absorbance values were expressed in percentage of proliferating cells in comparison with control cells (control corresponds to 100%).
(§4) Binomial exact 95% confidence intervals (95% C.I.s) were calculated for median percentages. Differences in IC50 values among lymphoma subtypes were calculated using the t-Student test. Statistical significance was defined by P values of 0.05 or less.

MCL cell lines = test: Proliferation MTT assay, median per subtype; assay type: cell-based; conditions: MCL cell lines (n=9), 72 h
Protocol: as §1, §2, §3, §4

GCB-DLBCL cell lines = test: Proliferation MTT assay, median per subtype; assay type: cell-based; conditions: GCB-DLBCL cell lines (n=12), 72 h
Protocol: as §1, §2, §3, §4

ABC-DLBCL cell lines = test: Proliferation MTT assay, median per subtype; assay type: cell-based; conditions: ABC-DLBCL cell lines (n=3), 72 h
Protocol: as §1, §2, §3, §4

HL cell lines = test: Proliferation MTT assay, median per subtype; assay type: cell-based; conditions: HL cell lines (n=4), 72 h
Protocol: as §1, §2, §3, §4

PLL cell lines = test: Proliferation MTT assay, median per subtype; assay type: cell-based; conditions: PLL cell lines (n=2), 72 h
REC1 [2] = test: Propidium iodide cell cycle staining; assay type: cell-based, human; conditions: REC1, 500 and 2000 nM, 72 h
Protocol: Lymphoma cells (10^6 per condition) were fixed in cold 70% ethanol (for at least 30 minutes at 4° C.), added dropwise to the cell pellet while vortexing. Cells were washed ×2 in PBS and Spin at 2000 rpm; supernatant was discarded and cells suspended in PBS (0.5 mL) and treated with Ribonuclease (50 μl of 100 μg/mL RNase). Then 200 μl of propidium iodide (50 μg/ml) were added and data acquisition was performed by using BD FACS-Canto II.

RCK8 = test: Proliferation MTT assay, 72 h; assay type: cell-based; conditions: Homo sapiens, RCK8 (GCB-DLBCL), 72 h exposure
Protocol: as §1, §2, §3

OCI-LY-8 = test: Proliferation MTT assay, 72 h; assay type: cell-based; conditions: OCI-Ly8, OCI-LY-8 (GCB-DLBCL), 72 h exposure
Protocol: as §1, §2, §3

PCL-12 = test: Proliferation MTT assay, 72 h; assay type: cell-based; conditions: PCL-12 (CLL), 72 h exposure
Protocol: as §1, §2, §3

REC1 [3] = test: Proliferation MTT assay, 72 h; assay type: cell-based; conditions: Homo sapiens, REC1 (MCL), 72 h exposure
Protocol: as §1, §2, §3

MAC-1 = test: Proliferation MTT assay, 72 h; assay type: cell-based; conditions: MAC-1 (T Cell - ALCL), 72 h exposure
Protocol: as §1, §2, §3

OCI-LY-19 = test: Proliferation MTT assay, 72 h; assay type: cell-based; conditions: Homo sapiens, OCI-LY19, OCI-LY-19 (GCB-DLBCL), 72 h exposure
Protocol: as §1, §2, §3

SP49 = test: Proliferation MTT assay, 72 h; assay type: cell-based; conditions: SP49 (MCL), 72 h exposure
Protocol: as §1, §2, §3

MAVER1 = test: Proliferation MTT assay, 72 h; assay type: cell-based; conditions: Homo sapiens, MAVER1 (MCL), 72 h exposure
Protocol: as §1, §2, §3

L-1236 = test: Proliferation MTT assay, 72 h; assay type: cell-based; conditions: L-1236 (HL), 72 h exposure
Protocol: as §1, §2, §3

OCI-LY-1 = test: Proliferation MTT assay, 72 h; assay type: cell-based; conditions: Homo sapiens, OCI-Ly1, OCI-LY-1 (GCB-DLBCL), 72 h exposure
Protocol: as §1, §2, §3

OCI-LY-7 = test: Proliferation MTT assay, 72 h; assay type: cell-based; conditions: Homo sapiens, OCI-Ly7, OCI-LY-7 (GCB-DLBCL), 72 h exposure
Protocol: as §1, §2, §3

KI-JK = test: Proliferation MTT assay, 72 h; assay type: cell-based; conditions: KI-JK (T Cell - ALCL), 72 h exposure
Protocol: as §1, §2, §3

HH = test: Proliferation MTT assay, 72 h; assay type: cell-based; conditions: Homo sapiens, HH (T Cell - CTCL), 72 h exposure
Protocol: as §1, §2, §3

SU-DHL-2 = test: Proliferation MTT assay, 72 h; assay type: cell-based; conditions: Homo sapiens, SU-DHL-2 (ABC-DLBCL), 72 h exposure
Protocol: as §1, §2, §3

SU-DHL-6 = test: Proliferation MTT assay, 72 h; assay type: cell-based; conditions: Homo sapiens, SU-DHL-6 (GCB-DLBCL), 72 h exposure
Protocol: as §1, §2, §3

SU-DHL-16 = test: Proliferation MTT assay, 72 h; assay type: cell-based; conditions: Homo sapiens, SU-DHL-16 (GCB-DLBCL), 72 h exposure
Protocol: as §1, §2, §3

SP53 = test: Proliferation MTT assay, 72 h; assay type: cell-based; conditions: SP53 (MCL), 72 h exposure
Protocol: as §1, §2, §3

L-428 = test: Proliferation MTT assay, 72 h; assay type: cell-based; conditions: Homo sapiens, L-428 (HL), 72 h exposure
Protocol: as §1, §2, §3

**Q.** Which IC50 [1] does the source give for C=CC(=O)N1CCCC(n2c(=O)c3ncccc3n(Cc3ccc(Oc4ccccc4)cc3)c2=O)C1 (stereo not shown) [EG-011, 1-[(4-phenoxyphenyl)methyl]-3-(1-prop-2-enoyl-3-piperidyl)pyrido[3,2-d]pyrimidine-2,4-dione] here?
**A.** 2.5 µM

**Q.** What about the IC50 (MCL cell lines) of the same molecule?
**A.** 1 µM

**Q.** And the IC50 (GCB-DLBCL cell lines)?
**A.** 0.55 µM

**Q.** And the IC50 (ABC-DLBCL cell lines)?
**A.** 10 µM

**Q.** And the IC50 (HL cell lines)?
**A.** 13.5 µM

**Q.** And the IC50 (PLL cell lines)?
**A.** 7.5 µM

**Q.** What about the “cells in the sub-GO phase (dead cells)” value (REC1 [2]) of the same molecule?
**A.** dose dependent increase of the cells in the sub-GO phase

**Q.** And the IC50 (RCK8)?
**A.** 10 µM

**Q.** What about the IC50 (OCI-LY-8) of the same molecule?
**A.** 0.3 µM

**Q.** And the IC50 (PCL-12)?
**A.** 7 µM

**Q.** What about the IC50 (REC1 [3]) of the same molecule?
**A.** 0.1 µM

**Q.** What about the IC50 (MAC-1) of the same molecule?
**A.** 0.15 µM

**Q.** And the IC50 (OCI-LY-19)?
**A.** 0.15 µM

**Q.** And the IC50 (SP49)?
**A.** 8 µM

**Q.** And the IC50 (MAVER1)?
**A.** 20 µM

**Q.** What about the IC50 (L-1236) of the same molecule?
**A.** 9 µM

**Q.** What about the IC50 (OCI-LY-1) of the same molecule?
**A.** 0.25 µM

**Q.** And the IC50 (OCI-LY-7)?
**A.** 5 µM

**Q.** And the IC50 (KI-JK)?
**A.** 20 µM

**Q.** And the IC50 (HH)?
**A.** 15 µM

**Q.** And the IC50 (SU-DHL-2)?
**A.** 20 µM

**Q.** What about the IC50 (SU-DHL-6) of the same molecule?
**A.** 0.5 µM

**Q.** What about the IC50 (SU-DHL-16) of the same molecule?
**A.** 1.5 µM

**Q.** What about the IC50 (SP53) of the same molecule?
**A.** 1 µM

**Q.** What about the IC50 (L-428) of the same molecule?
**A.** 20 µM
